Tests used:
Septoria tritici [1] = experiment: Test M (M1-M5): wheat leaf blotch, Compound 81 alone and in mixtures, observed and Colby expected control; assay type: in vivo
[2] = test system: Blumeria graminis f. sp. tritici; experiment: Test K (K1-K5): wheat powdery mildew, Compound 81 alone and in mixtures, observed and Colby expected control; assay type: in vivo; details: for Test K5 Obsd, disease control rating: wheat powdery mildew
[3] = test system: Puccinia recondita f sp. tritici; experiment: Test L (L1-L5): wheat leaf rust, Compound 81 alone and in mixtures, observed and Colby expected control; assay type: in vivo; details: for Test L5 Obsd, disease control rating: wheat leaf rust
Alternaria solani = experiment: Test B: tomato early blight, preventive spray on tomato seedlings, visual disease rating; details: tomato early blight; 100 = 100% disease control, 0 = no disease control relative to the controls
Septoria tritici [4] = experiment: Test F: wheat leaf blotch, preventive spray on wheat seedlings, visual disease rating; assay type: in vivo; details: 100 = 100% disease control, 0 = no disease control relative to the controls
Source text: (§1) A hyphen (-) indicates no test results.

Botrytis cinerea = experiment: Test A: tomato Botrytis, preventive spray on tomato seedlings, visual disease rating; details: tomato Botrytis; 100 = 100% disease control, 0 = no disease control relative to the controls
[5] = test system: Puccinia recondita f. sp. tritici; experiment: Test H: wheat leaf rust, preventive spray on wheat seedlings, visual disease rating; details: wheat leaf rust, sprayed the day before inoculation; 100 = 100% disease control, 0 = no disease control
Septoria nodorum = experiment: Test E: Septoria glume blotch, preventive spray on wheat seedlings, visual disease rating; details: Septoria glume blotch; 100 = 100% disease control, 0 = no disease control relative to the controls
Method: General protocol for preparing test suspensions for Tests A-I: the test compounds were first dissolved in acetone in an amount equal to 3% of the final volume and then suspended at the desired concentration (in ppm) in acetone and purified water (50/50 mix by volume) containing 250 ppm of the surfactant Trem® 014 (polyhydric alcohol esters). The resulting test suspensions were then used in Tests A-I. Each test was conducted in triplicate, and the results were averaged. Spraying a 200 ppm test suspension to the point of run-off on the test plants was the equivalent of a rate of about 800 g/ha. Unless otherwise indicated, the rating values indicate a 200 ppm test suspension was used. (An asterisk “*” next to the rating value indicates a 40 ppm test suspension was used.)
The test suspension was sprayed to the point of run-off on wheat seedlings. The following day the seedlings were inoculated with a spore suspension of Septoria nodorum (the causal agent of Septoria glume blotch) and incubated in a saturated atmosphere at 24° C. for 48 h, and then moved to a growth chamber at 20° C. for 9 days, after which time visual disease ratings were made.

[6] = test system: Puccinia recondita f. sp. tritici; experiment: Test G: wheat leaf rust, spray after inoculation (curative) on wheat seedlings, visual disease rating; assay type: in vivo; details: sprayed after inoculation, 100 = 100% disease control, 0 = no disease control
Source text: as §1

[7] = test system: Blumeria graminis f. sp. tritici; experiment: Test I: wheat powdery mildew, preventive spray on wheat seedlings, visual disease rating; details: wheat powdery mildew; 100 = 100% disease control, 0 = no disease control relative to the controls

CC(C1CC1)C(O)(Cn1cncn1)c1ccc(Cl)cc1 (stereo not shown) [cyproconazole]
Test M2 Obsd, disease control rating (Septoria tritici [1]; component (b) 0.4 ppm alone): 0%
Test M2 Obsd, disease control rating (Septoria tritici [1]; component (b) 2 ppm alone): 0%
Test M2 Obsd, disease control rating (Septoria tritici [1]; component (b) 10 ppm alone): 0%
Test M2 Obsd, disease control rating (Septoria tritici [1]; component (b) 40 ppm alone): 98%
Test K5 Obsd, disease control rating ([2]; component (b) 0.016 ppm alone): 64%
Test K5 Obsd, disease control rating ([2]; component (b) 0.08 ppm alone): 64%
Test K5 Obsd, disease control rating ([2]; component (b) 0.4 ppm alone): 79%
Test K5 Obsd, disease control rating ([2]; component (b) 2 ppm alone): 96%
Test L5 Obsd, disease control rating ([3]; component (b) 0.016 ppm alone): 27%
Test L5 Obsd, disease control rating ([3]; component (b) 0.08 ppm alone): 80%
Test L5 Obsd, disease control rating ([3]; component (b) 0.4 ppm alone): 92%
Test L5 Obsd, disease control rating ([3]; component (b) 2 ppm alone): 100%

Fc1ccc(Oc2ccnc3cc(Cl)cc(Cl)c23)cc1 [quinoxyfen]
Test M5 Obsd disease control rating (Septoria tritici [1]; component (b) alone 10 ppm): 0%
Test M5 Obsd disease control rating (Septoria tritici [1]; component (b) alone 40 ppm): 0%
Test M5 Obsd disease control rating (Septoria tritici [1]; component (b) alone 200 ppm): 8%
Test K5 Obsd, disease control rating ([2]; component (b) 0.016 ppm alone): 21%
Test K5 Obsd, disease control rating ([2]; component (b) 0.08 ppm alone): 29%
Test K5 Obsd, disease control rating ([2]; component (b) 0.4 ppm alone): 64%
Test K5 Obsd, disease control rating ([2]; component (b) 2 ppm alone): 93%
Test L1 Obsd ([3]; component (b) 10 ppm alone): 0%
Test L1 Obsd ([3]; component (b) 40 ppm alone): 0%
Test L1 Obsd ([3]; component (b) 200 ppm alone): 0%

CC(C)C1C2CCC1c1c(NC(=O)c3cn(C)nc3C(F)F)cccc12 (stereo not shown) [isopyrazam]
Test M2 Obsd, disease control rating (Septoria tritici [1]; component (b) 0.08 ppm alone): 0%
Test M2 Obsd, disease control rating (Septoria tritici [1]; component (b) 0.4 ppm alone): 77%
Test M2 Obsd, disease control rating (Septoria tritici [1]; component (b) 2 ppm alone): 93%
Test M2 Obsd, disease control rating (Septoria tritici [1]; component (b) 10 ppm alone): 100%
Test K3 Obsd ([2]; component (b) 0.08 ppm alone): 0%
Test K3 Obsd ([2]; component (b) 0.4 ppm alone): 50%
Test K3 Obsd ([2]; component (b) 2 ppm alone): 99%
Test K3 Obsd ([2]; component (b) 10 ppm alone): 99%
Test L5 Obsd, disease control rating ([3]; component (b) 0.016 ppm alone): 68%
Test L5 Obsd, disease control rating ([3]; component (b) 0.08 ppm alone): 89%
Test L5 Obsd, disease control rating ([3]; component (b) 0.4 ppm alone): 100%
Test L5 Obsd, disease control rating ([3]; component (b) 2 ppm alone): 100%

CC1CCN(c2c(-c3c(F)cc(F)cc3F)c(Cl)nc3ncnn23)CC1 [BAS600, 5-chloro-6-(2,4,6-trifluorophenyl)-7-(4-methylpiperidin-1-yl)[1,2,4]triazolo[1,5-a]pyrimidine]
Test M2 Obsd, disease control rating (Septoria tritici [1]; component (b) 0.016 ppm alone): 0%
Test M2 Obsd, disease control rating (Septoria tritici [1]; component (b) 0.08 ppm alone): 0%
Test M2 Obsd, disease control rating (Septoria tritici [1]; component (b) 0.4 ppm alone): 93%
Test M2 Obsd, disease control rating (Septoria tritici [1]; component (b) 2 ppm alone): 100%
Test K3 Obsd ([2]; component (b) 0.08 ppm alone): 0%
Test K3 Obsd ([2]; component (b) 0.4 ppm alone): 0%
Test K3 Obsd ([2]; component (b) 2 ppm alone): 96%
Test K3 Obsd ([2]; component (b) 10 ppm alone): 100%
Test L3 Obsd ([3]; component (b) 0.08 ppm alone): 74%
Test L3 Obsd ([3]; component (b) 0.4 ppm alone): 88%
Test L3 Obsd ([3]; component (b) 2 ppm alone): 99%
Test L3 Obsd ([3]; component (b) 10 ppm alone): 100%

Cn1cc(C(=O)Nc2ccc(F)cc2-c2ccc(Cl)c(Cl)c2)c(C(F)F)n1 [bixafen]
Test M2 Obsd, disease control rating (Septoria tritici [1]; component (b) 0.08 ppm alone): 0%
Test M2 Obsd, disease control rating (Septoria tritici [1]; component (b) 0.4 ppm alone): 33%
Test M2 Obsd, disease control rating (Septoria tritici [1]; component (b) 2 ppm alone): 89%
Test K3 Obsd ([2]; component (b) 0.08 ppm alone): 0%
Test K3 Obsd ([2]; component (b) 0.4 ppm alone): 0%
Test K3 Obsd ([2]; component (b) 2 ppm alone): 64%
Test K3 Obsd ([2]; component (b) 10 ppm alone): 99%
Test L3 Obsd ([3]; component (b) 0.08 ppm alone): 9%
Test L3 Obsd ([3]; component (b) 0.4 ppm alone): 88%
Test L3 Obsd ([3]; component (b) 2 ppm alone): 99%
Test L3 Obsd ([3]; component (b) 10 ppm alone): 100%

CCCN(CC)CC1COC2(CCC(C(C)(C)C)CC2)O1 (stereo not shown) [spiroxamine]
Test M5 Obsd disease control rating (Septoria tritici [1]; component (b) alone 10 ppm): 0%
Test M5 Obsd disease control rating (Septoria tritici [1]; component (b) alone 40 ppm): 3%
Test M5 Obsd disease control rating (Septoria tritici [1]; component (b) alone 200 ppm): 0%
Test K3 Exp ([2]; component (b) 0.4 ppm alone): 0%
Test K3 Obsd ([2]; component (b) 0.4 ppm alone): 0%
Test K3 Exp ([2]; component (b) 2 ppm alone): 0%
Test K3 Obsd ([2]; component (b) 2 ppm alone): 0%
Test K3 Exp ([2]; component (b) 10 ppm alone): 0%
Test K3 Obsd ([2]; component (b) 10 ppm alone): 0%
Test K3 Exp ([2]; component (b) 40 ppm alone): 91%
Test K3 Obsd ([2]; component (b) 40 ppm alone): 99%

Cc1nn(C)c(Nc2c(Cl)cc(Br)cc2Cl)c1-c1ccc(F)cc1Br [compound 168]
Test B rating (disease control) (Alternaria solani): 0%
Test F rating (disease control) (Septoria tritici [4]): 100%
Test A rating (disease control) (Botrytis cinerea): 0%
Test H rating (disease control) [5]: 91%
Test E rating (disease control) (Septoria nodorum): 0%
Test G rating (disease control) [6]: 97%
Test I rating (disease control) [7]: 48%

Cc1nn(C)c(Nc2c(Cl)cc(F)cc2Cl)c1-c1c(Cl)cccc1Cl [compound 115]
Test B rating (disease control) (Alternaria solani): 0%
Test F rating (disease control) (Septoria tritici [4]): 99%
Test A rating (disease control) (Botrytis cinerea): 99%
Test H rating (disease control) [5]: 99%
Test E rating (disease control) (Septoria nodorum): 0%
Test G rating (disease control) [6]: 0%
Test I rating (disease control) [7]: 93%

From patent US20170150719A1, “FUNGICIDAL PYRAZOLES AND THEIR MIXTURES” (E I DU PONT DE NEMOURS AND COMPANY, priority 2010, published 2017)
